Where a name gives a salt, the structure may show the parent alone.
Biological target: recombinant human PARP (Homo sapiens, UniProt P09874)
Experiment: Measurement of PARP enzymatic activity (transfer of radiolabeled ADP-ribose from NAD+ to protein acceptor)
Type: biochemical
Details: not given
Procedure: PARP activity was monitored by transfer of radiolabeled ADP-ribose units from [^32]NAD^+ to a protein acceptor such as histone or PARP itself. […] The reactions were initiated by the addition of 100 μM NAD^+ supplemented with 2 uCi [^32]NAD^+/mL and maintained at room temperature for 12 minutes. […] The amount of acid-insoluble radioactivity, corresponding to polyADP-ribosylated protein, was quantitated in a Wallac MicroBeta scintillation counter.
Single-point inhibition data were calculated by comparing PARP, VEGFR2, or MLK3 activity in the presence of inhibitor to activity in the presence of DMSO only. Inhibition curves for compounds were generated by plotting percent inhibition versus log10 of the concentration of compound. IC50 values were calculated by nonlinear regression using the sigmoidal dose-response (variable slope) equation in GraphPad Prism as follows: y=bottom+(top−bottom)/(1+10^(log IC50^−x)*Hillslope) where y is the % activity at a given concentration of compound, x is the logarithm of the concentration of compound, bottom is the % inhibition at the lowest compound concentration tested, and top is the % inhibition at the highest compound concentration examined. The values for bottom and top were fixed at 0 and 100, respectively. IC50 values were reported as the average of at least three separate determinations.
For some compounds, inhibiting data is presented as percent inhibition at a specified concentration. Compounds are tabulated together with compound number, substituents, and enzyme inhibition data.

Chain of recombinant human PARP (P09874 whole entry): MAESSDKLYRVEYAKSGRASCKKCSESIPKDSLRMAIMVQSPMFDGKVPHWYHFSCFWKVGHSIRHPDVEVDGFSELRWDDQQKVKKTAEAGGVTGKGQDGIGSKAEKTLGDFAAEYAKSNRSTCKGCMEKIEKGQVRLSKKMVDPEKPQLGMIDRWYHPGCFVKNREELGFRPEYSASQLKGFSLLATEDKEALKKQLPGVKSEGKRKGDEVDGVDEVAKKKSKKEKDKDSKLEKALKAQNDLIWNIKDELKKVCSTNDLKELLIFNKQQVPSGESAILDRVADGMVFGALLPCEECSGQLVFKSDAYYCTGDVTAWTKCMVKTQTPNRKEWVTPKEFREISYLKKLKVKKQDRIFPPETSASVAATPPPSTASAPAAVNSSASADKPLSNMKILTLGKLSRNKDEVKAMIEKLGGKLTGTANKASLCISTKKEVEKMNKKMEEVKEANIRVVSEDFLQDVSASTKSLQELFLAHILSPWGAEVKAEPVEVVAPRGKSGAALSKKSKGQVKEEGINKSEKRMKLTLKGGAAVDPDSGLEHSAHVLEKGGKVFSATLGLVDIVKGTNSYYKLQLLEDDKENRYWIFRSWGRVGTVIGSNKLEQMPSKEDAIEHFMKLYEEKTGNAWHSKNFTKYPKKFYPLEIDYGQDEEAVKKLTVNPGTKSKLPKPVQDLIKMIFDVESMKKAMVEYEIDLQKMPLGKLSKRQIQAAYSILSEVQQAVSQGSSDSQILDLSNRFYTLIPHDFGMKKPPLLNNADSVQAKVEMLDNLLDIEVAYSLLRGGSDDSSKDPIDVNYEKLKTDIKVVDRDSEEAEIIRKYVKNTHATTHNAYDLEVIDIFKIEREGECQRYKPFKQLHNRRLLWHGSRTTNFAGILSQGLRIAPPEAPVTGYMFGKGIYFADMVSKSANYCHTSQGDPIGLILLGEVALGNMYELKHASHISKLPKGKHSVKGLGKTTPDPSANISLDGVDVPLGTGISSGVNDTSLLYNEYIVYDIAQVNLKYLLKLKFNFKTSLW

SMILES	IC50 [nM]
O=C1NC(=O)c2c1c1c(c3[nH]c4ccc(C(=O)N5CCC6(CC5)OCCO6)cc4c23)CCC1 [Compound 2db]	11

Same assay, conditions: PARP IC50 (nM), Table 2

SMILES	IC50 [nM]
O=C(CBr)c1ccc2[nH]c3c4c(c5c(c3c2c1)C(=O)NC5=O)CCC4 [Compound 2e]	13

Same assay, conditions: Table 2; read-out: PARP IC50

SMILES	IC50 [nM]
O=C1NC(O)c2c1c1c(c3[nH]c4ccccc4c23)CCC1 (stereo not drawn) [Compound 2ay]	408
CCc1ccc2[nH]c3c4c(c5c(c3c2c1)C(=O)NC5=O)CCC4 [Compound 2az]	116
O=C1NC(=O)c2c1c1c(c3[nH]c4ccc(Cl)cc4c23)CCC1 [Compound 2b]	39
COC(=O)C(=O)c1ccc2[nH]c3c4c(c5c(c3c2c1)C(=O)NC5=O)CCC4 [Compound 2ba]	12
O=C(O)C(=O)c1ccc2[nH]c3c4c(c5c(c3c2c1)C(=O)NC5=O)CCC4 [Compound 2bb]	5
N#CCc1ccc2[nH]c3c4c(c5c(c3c2c1)C(=O)NC5=O)CCC4 [Compound 2bc]	24
O=C(O)c1ccc2[nH]c3c4c(c5c(c3c2c1)C(=O)NC5=O)CCC4 [Compound 2bd]	85
NCCc1ccc2[nH]c3c4c(c5c(c3c2c1)C(=O)NC5=O)CCC4 [Compound 2be]	36
Cc1ccc2[nH]c3c4c(c5c(c3c2c1)C(=O)NC5=O)CCC4 [Compound 2bf]	82
CN(C)CC(=O)OCc1ccc2[nH]c3c4c(c5c(c3c2c1)C(=O)NC5=O)CCC4 [Compound 2bg]	31
NC(=O)c1ccc2[nH]c3c4c(c5c(c3c2c1)C(=O)NC5=O)CCC4 [Compound 2bh]	31
COC(=O)c1ccc2[nH]c3c4c(c5c(c3c2c1)C(=O)NC5=O)CCC4 [Compound 2bi]	27
CN(C)Cc1ccc2[nH]c3c4c(c5c(c3c2c1)C(=O)NC5=O)CCC4 [Compound 2bj]	29
CCNCc1ccc2[nH]c3c4c(c5c(c3c2c1)C(=O)NC5=O)CCC4 [Compound 2bk]	32
CCCN(CCC)Cc1ccc2[nH]c3c4c(c5c(c3c2c1)C(=O)NC5=O)CCC4 [Compound 2bl]	16
CCN(CC)Cc1ccc2[nH]c3c4c(c5c(c3c2c1)C(=O)NC5=O)CCC4 [Compound 2bm]	17
CCCCN(CCCC)Cc1ccc2[nH]c3c4c(c5c(c3c2c1)C(=O)NC5=O)CCC4 [Compound 2bn]	28
O=C1NC(=O)c2c1c1c(c3[nH]c4ccc(CN(Cc5ccccc5)Cc5ccccc5)cc4c23)CCC1 [Compound 2bo]	293
CCCCNCc1ccc2[nH]c3c4c(c5c(c3c2c1)C(=O)NC5=O)CCC4 [Compound 2bp]	25
O=C1NC(=O)c2c1c1c(c3[nH]c4ccc(CNCc5ccccc5)cc4c23)CCC1 [Compound 2bq]	26
CC(C)NCc1ccc2[nH]c3c4c(c5c(c3c2c1)C(=O)NC5=O)CCC4 [Compound 2br]	25
CNCc1ccc2[nH]c3c4c(c5c(c3c2c1)C(=O)NC5=O)CCC4 [Compound 2bt]	25

SMILES	IC50 [nM]
O=C1NC(=O)c2c1c1c(c3[nH]c4ccc(CN5CCOCC5)cc4c23)CCC1 [Compound 2bv]	32
O=C1NC(=O)c2c1c1c(c3[nH]c4ccc(CN5CCCC5)cc4c23)CCC1 [Compound 2bw]	35
O=C1NC(=O)c2c1c1c(c3[nH]c4ccc(CN5CCCCC5)cc4c23)CCC1 [Compound 2bx]	35
O=C(Cn1cnnn1)NCc1ccc2[nH]c3c4c(c5c(c3c2c1)C(=O)NC5=O)CCC4 [Compound 2by]	14
O=C1NC(=O)c2c1c1c(c3[nH]c4ccc(F)cc4c23)CCC1 [Compound 2c]	39
CC(C)(C)OC(=O)NCCC(=O)NCc1ccc2[nH]c3c4c(c5c(c3c2c1)C(=O)NC5=O)CCC4 [Compound 2ca]	95
O=C1NC(=O)c2c1c1c(c3[nH]c4ccc(CNS(=O)(=O)c5ccccc5)cc4c23)CCC1 [Compound 2cd]	39
O=CNCc1ccc2[nH]c3c4c(c5c(c3c2c1)C(=O)NC5=O)CCC4 [Compound 2ce]	34
O=CNCc1ccc2[nH]c3c4c(c5c(c3c2c1)C(O)NC5=O)CCC4 (stereo not drawn) [Compound 2cf]	124
CN(C)CCNC(=O)c1ccc2[nH]c3c4c(c5c(c3c2c1)C(=O)NC5=O)CCC4 [Compound 2cg]	31
CN(C)CCCNC(=O)c1ccc2[nH]c3c4c(c5c(c3c2c1)C(=O)NC5=O)CCC4 [Compound 2ch]	33
O=C(NCc1ccncc1)c1ccc2[nH]c3c4c(c5c(c3c2c1)C(=O)NC5=O)CCC4 [Compound 2ci]	13
O=C(NCc1cccnc1)c1ccc2[nH]c3c4c(c5c(c3c2c1)C(=O)NC5=O)CCC4 [Compound 2cl]	21
O=C(NCCN1CCCCC1)c1ccc2[nH]c3c4c(c5c(c3c2c1)C(=O)NC5=O)CCC4 [Compound 2cm]	148
O=C(NCCN1CCOCC1)c1ccc2[nH]c3c4c(c5c(c3c2c1)C(=O)NC5=O)CCC4 [Compound 2cn]	26
COCCNC(=O)c1ccc2[nH]c3c4c(c5c(c3c2c1)C(=O)NC5=O)CCC4 [Compound 2co]	18
O=C1NC(=O)c2c1c1c(c3[nH]c4ccc(C(=O)N5CCOCC5)cc4c23)CCC1 [Compound 2cp]	12
CN1CCN(C(=O)c2ccc3[nH]c4c5c(c6c(c4c3c2)C(=O)NC6=O)CCC5)CC1 [Compound 2cq]	12
O=C(NCC1CCCO1)c1ccc2[nH]c3c4c(c5c(c3c2c1)C(=O)NC5=O)CCC4 (stereo not drawn) [Compound 2cr]	14
CN(C)CCN(C)C(=O)c1ccc2[nH]c3c4c(c5c(c3c2c1)C(=O)NC5=O)CCC4 [Compound 2cu]	151
O=C(NCCc1ccccn1)c1ccc2[nH]c3c4c(c5c(c3c2c1)C(=O)NC5=O)CCC4 [Compound 2cv]	18
CN(CCc1ccccn1)C(=O)c1ccc2[nH]c3c4c(c5c(c3c2c1)C(=O)NC5=O)CCC4 [Compound 2cw]	24

SMILES	IC50 [nM]
CN(Cc1ccncc1)C(=O)c1ccc2[nH]c3c4c(c5c(c3c2c1)C(=O)NC5=O)CCC4 [Compound 2cx]	10
CN(CC1CCNCC1)C(=O)c1ccc2[nH]c3c4c(c5c(c3c2c1)C(=O)NC5=O)CCC4 [Compound 2cy]	23
CN(C)CCOC(=O)c1ccc2[nH]c3c4c(c5c(c3c2c1)C(=O)NC5=O)CCC4 [Compound 2cz]	30
CC(=O)c1ccc2[nH]c3c4c(c5c(c3c2c1)C(=O)NC5=O)CCC4 [Compound 2d]	17
O=C1NC(=O)c2c1c1c(c3[nH]c4ccc(C(=O)N(CCO)CCO)cc4c23)CCC1 [Compound 2dc]	18
CCOCc1ccc2[nH]c3c4c(c5c(c3c2c1)C(=O)NC5=O)CCC4 [Compound 2de]	43
O=C1NC(=O)c2c1c1c(c3[nH]c4ccc(COCCc5ccccn5)cc4c23)CCC1 [Compound 2df]	104
CC(Br)C(=O)c1ccc2[nH]c3c4c(c5c(c3c2c1)C(=O)NC5=O)CCC4 (stereo not drawn) [Compound 2f]	21
CN1CCN(CC(=O)c2ccc3[nH]c4c5c(c6c(c4c3c2)C(=O)NC6=O)CCC5)CC1 [Compound 2g]	16
O=C(CN1CCCCC1)c1ccc2[nH]c3c4c(c5c(c3c2c1)C(=O)NC5=O)CCC4 [Compound 2i]	20
CCN(CC)CC(=O)c1ccc2[nH]c3c4c(c5c(c3c2c1)C(=O)NC5=O)CCC4 [Compound 2j]	21
CN(CC(=O)O)CC(=O)c1ccc2[nH]c3c4c(c5c(c3c2c1)C(=O)NC5=O)CCC4 [Compound 2l]	8
O=C(O)CCC(=O)c1ccc2[nH]c3c4c(c5c(c3c2c1)C(=O)NC5=O)CCC4 [Compound 2m]	3
O=C(Cn1cncn1)c1ccc2[nH]c3c4c(c5c(c3c2c1)C(=O)NC5=O)CCC4 [Compound 2n]	15
N#Cc1ccc2[nH]c3c4c(c5c(c3c2c1)C(=O)NC5=O)CCC4 [Compound 2o, 3-Cyano-5,7,8,9,10,11-hexahydrocyclopent[a]pyrrolo[3,4-c]carbazole-5(6H), 7-dione]	14
NCc1ccc2[nH]c3c4c(c5c(c3c2c1)C(=O)NC5=O)CCC4 [Compound 2p, 3-(Aminomethyl)-5,7,8,9,10,11-hexahydrocyclopent[a]pyrrolo[3,4-c]carbazole-5(6H), 7-dione hydrochloride]	13
O=C1NC(=O)c2c1c1c(c3[nH]c4ccc(CNCc5ccc6[nH]c7c8c(c9c(c7c6c5)C(=O)NC9=O)CCC8)cc4c23)CCC1 [Compound 2q, Bis-[5(6H), 7-dioxo-5,7,8,9,10,11-hexahydrocyclopent[a]pyrrolo[3,4-c]carbazol-3-ylmethyl]amine hydrochloride]	167
CC(=O)NCc1ccc2[nH]c3c4c(c5c(c3c2c1)C(=O)NC5=O)CCC4 [Compound 2r, 3-(Acetylaminomethyl)-5,7,8,9,10,11-hexahydrocyclopent[a]pyrrolo[3,4-c]carbazole-5(6H), 7-dione]	13
CCC(=O)NCc1ccc2[nH]c3c4c(c5c(c3c2c1)C(=O)NC5=O)CCC4 [Compound 2s, 3-(Propanoylaminomethyl)-5,7,8,9,10,11-hexahydrocyclopent[a]pyrrolo[3,4-c]carbazole-5(6H), 7-dione]	28
CCCC(=O)NCc1ccc2[nH]c3c4c(c5c(c3c2c1)C(=O)NC5=O)CCC4 [Compound 2t, 3-(Butanoylaminomethyl)-5,7,8,9,10,11-hexahydrocyclopent[a]pyrrolo[3,4-c]carbazole-5(6H), 7-dione]	44

From patent publication US8716493B2, “Multicyclic compounds and the use thereof” (Cephalon, Inc., priority 2000, dated 2014)
